A short description of assay [1]: Inhibition of IL-6/JAK/STAT3 signalling pathway in HEK-Blue IL-6 cells incubated for 16 hrs by QUANTI-blue assay. The assay is classed as cell-based. As to conditions: Homo sapiens, HEK-Blue IL-6, 16 h.
Assay [2] concerns HEK-Blue IL-6. As to the kind of experiment: Inhibition of IL-6/JAK/STAT3 signalling pathway in HEK-Blue IL-6 cells at 10 uM incubated for 16 hrs by QUANTI-blue assay relative to control. The class given is cell-based. As to conditions: Homo sapiens.
In assay [3] the test system is MDA-MB-231. Put plainly: Antiproliferative activity against human MDA-MB-231 cells assessed as inhibition of cell growth at 10 uM measured after 96 hrs by MTT assay relative to control. The class given is functional. (In general: Tetrazolium dyes change colour on reduction, which living cells bring about.)
The test system of assay [4] is DU-145. Put plainly: Antiproliferative activity against human DU-145 cells assessed as inhibition of cell growth measured after 96 hrs by MTT assay. The class given is functional, cell-based. As to conditions: DU-145, 96 h.
Assay [5] concerns MDA-MB-231. Put plainly: Antiproliferative activity against human MDA-MB-231 cells assessed as inhibition of cell growth measured after 96 hrs by MTT assay. The class given is functional, cell-based. As to conditions: MDA-MB-231, 96 h.
For assay [6], the system named is DU-145. Put plainly: Antiproliferative activity against human DU-145 cells assessed as inhibition of cell growth at 10 uM measured after 96 hrs by MTT assay relative to control. The assay is classed as functional.

SMILES strings stand for the structures.

By IC50 is commonly meant the point on the concentration scale where inhibition reaches its midpoint. The inhibition is the change of the read-out against control, counted positive when it falls. `CN(C)CCn1c(-c2ccc(F)cc2)nc2cc(Nc3nnc(-c4ccccc4)s3)c(N3CCN(C)CC3)cc21` registered a 50% inhibitory concentration (IC50) in assay [1] of more than 10 µM. Besides, the inhibition in assay [2] stood at 2.11%.
Take `O=[N+]([O-])c1ccc2c(c1)S(=O)(=O)C=C2`: the IC50 in assay [1] turned out to be 2.21 µM; in assay [4], 1.84 µM; in assay [5], 1.66 µM. For the same molecule, the inhibition in assay [2] is 107%. Further, the figures for the inhibition at 10 µM in assay [3] and in assay [6] were 92.2% and 79.6%, respectively.
In the case of `CN1CCN(c2cc3c(cc2Nc2nnc(-c4cccnc4)s2)nc(-c2ccc(F)cc2)n3C2CC2)CC1`, in assay [1], the IC50 is more than 10 µM. Further, in assay [2], the inhibition is -0.36%.
In the case of `CC(C)N1CCN(c2cc3c(cc2Nc2nnc(-c4ccccc4)s2)nc(-c2ccc(F)cc2)n3C2CC2)CC1`, the IC50 in assay [1] was determined as 2.42 µM; in assay [4] it was 4.04 µM; in assay [5], 3.21 µM. Moreover, in assay [2], the inhibition was 77.1%. The inhibition at 10 µM in assay [3] was 90.1%; in assay [6], 79.9%.
Consider `CCCCn1c(-c2ccc(F)cc2)nc2cc(Nc3nnc(-c4ccccc4)s3)c(N3CCN(C)CC3)cc21`, for which the IC50 was 3.51 µM in assay [1], more than 10 µM in assay [4] and more than 10 µM in assay [5]. In assay [2], the inhibition was determined as 80.7%. Besides, the inhibition at 10 µM is -14.4% in assay [3] and -9.69% in assay [6].
In the case of `CN1CCN(c2cc3c(cc2Nc2nnc(-c4cccc(C#N)c4)s2)nc(-c2ccc(F)cc2)n3C2CC2)CC1`, the 50% inhibitory concentration (IC50) in assay [1] was 4.01 µM; in assay [4], 2.17 µM; in assay [5], 0.96 µM. For the same molecule, in assay [2], the inhibition came to 83.7%. Also, the inhibition at 10 µM in assay [3] stood at 92.7%; in assay [6] it was 85.9%.
Take `CC(C)c1ccc(-c2nnc(Nc3cc4nc(-c5ccc(F)cc5)n(C5CC5)c4cc3F)s2)cc1`: the 50% inhibitory concentration (IC50) in assay [1] is 7.88 µM; in assay [4], more than 10 µM; in assay [5], more than 10 µM. In addition, the inhibition in assay [2] came out at 61.9%. Also, the inhibition at 10 µM in assay [3] came out at 1.85%; in assay [6], 17.9%.
Consider `Fc1ccc(-c2nc3cc(Nc4nnc(-c5ccc(C(F)(F)F)cc5)s4)c(N4CCOCC4)cc3n2C2CC2)cc1`, for which the IC50 in assay [1] was more than 10 µM. Besides, in assay [2], the inhibition was 0.29%.
The like results for `Fc1cc2c(cc1Nc1nnc(-c3cccc(C(F)(F)F)c3)s1)nc(-c1ccccc1)n2C1CC1` were, in that order, more than 10 µM and 25.6%.
For the molecule `CN1CCN(c2cc3c(cc2Nc2nnc(-c4cccc(F)c4)s2)nc(-c2ccc(F)cc2)n3C2CC2)CC1`, the IC50 in assay [1] came to 3.52 µM; in assay [4], 9.37 µM; in assay [5], 6.47 µM. For the same molecule, the inhibition in assay [2] is 82.1%. Further, the inhibition at 10 µM in assay [3] is 91.9%; in assay [6], 56.4%.
On to `CCCn1c(-c2cccc(F)c2)nc2cc(Nc3nnc(-c4ccc(C(F)(F)F)cc4)s3)c(F)cc21`, for which, in assay [1], the IC50 is more than 10 µM. The inhibition in assay [2] was 54.6%.
In the same order, the values of `CN1CCN(c2cc3c(cc2Nc2nnc(-c4ccccc4)s2)nc(-c2cccnc2)n3C2CC2)CC1` are more than 10 µM and 25.5%.
In the same order, the values of `Fc1ccc(-c2nc3cc(Nc4nnc(-c5ccc(C(F)(F)F)cc5)s4)ccc3n2C2CC2)cc1` are more than 10 µM and 8.71%.
`COCCn1c(-c2ccc(F)cc2)nc2cc(Nc3nnc(-c4ccccc4)s3)c(N3CCN(C)CC3)cc21` yielded an IC50 in assay [1] of 6.42 µM. In addition, the inhibition in assay [2] is 65.4%.
Turning to `Fc1ccc(-c2nc3cc(Nc4nnc(-c5ccc(C(F)(F)F)cc5)s4)c(F)cc3n2C2CC2)cc1`, the IC50 in assay [1] is 4.84 µM; in assay [4], more than 10 µM; in assay [5] it was more than 10 µM. For the same molecule, the inhibition in assay [2] was determined as 64.1%. The inhibition at 10 µM was -2.76% in assay [3] and -25% in assay [6].
As for `CCCn1c(-c2ccc(F)cc2)nc2cc(Nc3nnc(-c4cccc(C(F)(F)F)c4)s3)c(N3CCN(C)CC3)cc21`, the IC50 in assay [1] was more than 10 µM; in assay [4] it was 9.73 µM; in assay [5], 6.63 µM. Also, the inhibition in assay [2] came out at 5.21%. In addition, the inhibition at 10 µM was found to be 90.1% in assay [3] and 55.6% in assay [6].
Consider `Fc1ccc(-c2nc3cc(Nc4nnc(-c5ccccc5)s4)ccc3n2C2CC2)cc1`, for which it took 5.79 µM to reach half-maximal inhibition in assay [1] (IC50). Besides, the inhibition in assay [2] was 66.1%.
In the same order, the values of `Fc1cc2c(cc1Nc1nnc(-c3cccc(C(F)(F)F)c3)s1)nc(-c1ccc(C(F)(F)F)cc1)n2C1CC1` are more than 10 µM and 29.6%.
Consider `Fc1ccc(-c2nc3cc(Nc4nnc(-c5ccccc5C(F)(F)F)s4)c(F)cc3n2C2CC2)cc1`, for which the figures for the concentration for half-maximal inhibition (IC50) in assay [1], in assay [4] and in assay [5] were 0.6 µM, more than 10 µM and more than 10 µM, respectively. Moreover, in assay [2], the inhibition is 99.9%. The inhibition at 10 µM in assay [3] was determined as 3.62%; in assay [6] it was 14.7%.
In assay [1], `Fc1ccc(-c2nc3cc(Nc4nnc(-c5cccc(C(F)(F)F)c5)s4)ccc3n2C2CC2)cc1` returned a 50% inhibitory concentration (IC50) of more than 10 µM. The inhibition in assay [2] is 34.5%.
In the same order, the values of `CN1CCN(c2cc3c(cc2Nc2nnc(-c4ccccc4)s2)nc(-c2ccccc2F)n3C2CC2)CC1` are 7.56 µM and 63.3%.
For `CN1CCN(c2cc3c(cc2Nc2nnc(-c4ccccc4)s2)nc(-c2ccccc2)n3C2CC2)CC1`, the 50% inhibitory concentration (IC50) in assay [1] is 1.99 µM; in assay [4] it was 9.17 µM; in assay [5], 5.92 µM. Also, the inhibition in assay [2] worked out at 78.1%. In addition, the inhibition at 10 µM in assay [3] was found to be 83.3%; in assay [6] it was 47%.
For the molecule `CN(C)C1CCN(c2cc3c(cc2Nc2nnc(-c4ccccc4)s2)nc(-c2ccc(F)cc2)n3C2CC2)CC1`, the results for the 50% inhibitory concentration (IC50) in assay [1], in assay [4] and in assay [5] were 3.29 µM, more than 10 µM and more than 10 µM, respectively. Further, the inhibition in assay [2] was determined as 69.2%. The inhibition at 10 µM was 19.5% in assay [3] and -2.92% in assay [6].
For the molecule `CCCn1c(-c2ccc(F)cc2)nc2cc(Nc3nnc(-c4ccc(C(F)(F)F)cc4)s3)c(N3CCN(C)CC3)cc21`, the values for the IC50 in assay [1], in assay [4] and in assay [5] were 3.28 µM, 6.73 µM and 3.83 µM, respectively. The inhibition in assay [2] stood at 90.9%. Besides, the inhibition at 10 µM in assay [3] amounted to 93.8%; in assay [6], 64.6%.
Turning to `Fc1ccc(Oc2cc3c(cc2Nc2nnc(-c4cccc(C(F)(F)F)c4)s2)nc(-c2ccc(F)cc2)n3C2CC2)cc1`, the IC50 in assay [1] is more than 10 µM. Moreover, in assay [2], the inhibition amounted to 6.34%.
In the same order, the values of `Fc1ccc(-c2nc3cc(Nc4nnc(-c5ccc(Cl)c(C(F)(F)F)c5)s4)c(F)cc3n2C2CC2)cc1` are more than 10 µM and 34.2%.
With `CC(C)Cn1c(-c2ccc(F)cc2)nc2cc(Nc3nnc(-c4ccccc4)s3)c(N3CCN(C)CC3)cc21`, the values for the concentration for half-maximal inhibition (IC50) in assay [1], in assay [4] and in assay [5] were 3.92 µM, more than 10 µM and 8.55 µM, respectively. In addition, in assay [2], the inhibition was determined as 77.4%. Also, the results for the inhibition at 10 µM in assay [3] and in assay [6] were 62.2% and 26.7%, respectively.
For the molecule `CC(C)(C)c1ccc(-c2nnc(Nc3cc4nc(-c5ccc(F)cc5)n(C5CC5)c4cc3F)s2)cc1`, the IC50 in assay [1] was more than 10 µM. Further, the inhibition in assay [2] is 36.1%.
On to `Fc1cc2c(cc1Nc1nnc(-c3cccc(C(F)(F)F)c3)s1)nc(-c1cccc(C(F)(F)F)c1)n2C1CC1`, for which the half-inhibitory concentration (IC50) in assay [1] is 1.53 µM; in assay [4], more than 10 µM; in assay [5] it was more than 10 µM. In addition, in assay [2], the inhibition came to 72.8%. The inhibition at 10 µM in assay [3] was 4.54%; in assay [6] it was -0.72%.
On to `CCCCCn1c(-c2ccc(F)cc2)nc2cc(Nc3nnc(-c4ccccc4)s3)c(N3CCN(C)CC3)cc21`, for which the IC50 in assay [1] was 3.96 µM; in assay [4], more than 10 µM; in assay [5], more than 80 µM. The inhibition in assay [2] was determined as 83.2%. Also, the inhibition at 10 µM was -7.99% in assay [3] and -8.3% in assay [6].
With `CCCn1c(-c2ccc(F)cc2)nc2cc(Nc3nnc(-c4ccccc4)s3)c(N3CCN(C)CC3)cc21`, the 50% inhibitory concentration (IC50) in assay [1] came to 1.32 µM; in assay [4], 4.68 µM; in assay [5], 3.34 µM. For the same molecule, the inhibition in assay [2] stood at 105%. For the same molecule, the results for the inhibition at 10 µM in assay [3] and in assay [6] were 93.4% and 80.7%, respectively.
As to `CCCn1c(-c2ccc(F)cc2)nc2cc(Nc3nnc(-c4cccc(F)c4)s3)c(N3CCN(C)CC3)cc21`, the IC50 in assay [1] was determined as 1.96 µM; in assay [4] it was 4.34 µM; in assay [5], 3.33 µM. Further, in assay [2], the inhibition was 85.3%. Also, the figures for the inhibition at 10 µM in assay [3] and in assay [6] were 94.7% and 78.9%, respectively.
`CN1CCN(c2cc3c(cc2Nc2nnc(-c4ccccc4)s2)nc(-c2ccc(F)cc2)n3C2CCC2)CC1` returned an IC50 in assay [1] of 6.27 µM. Further, the inhibition in assay [2] was determined as 64.7%.
For the molecule `CCCn1c(-c2cccc(F)c2)nc2cc(Nc3nnc(-c4cccc(C(F)(F)F)c4)s3)c(F)cc21`, the concentration for half-maximal inhibition (IC50) in assay [1] was more than 10 µM. In addition, the inhibition in assay [2] came to 20.2%.
The molecule `Fc1cc2c(cc1Nc1nnc(-c3ccccc3F)s1)nc(-c1ccccc1F)n2C1CC1` yielded a 50% inhibitory concentration (IC50) in assay [1] of 3.92 µM. The inhibition in assay [2] came to 63.6%.
As to `Fc1ccc(-c2nc3cc(Nc4nnc(-c5cccc(C(F)(F)F)c5)s4)c(F)cc3n2C2CC2)cc1`, the inhibition at 10 µM in assay [3] was 8.11%; in assay [6], -3.68%. For the same molecule, the concentration for half-maximal inhibition (IC50) in assay [4] and in assay [5] was more than 10 µM throughout.
Consider `Fc1ccc(-c2nc3cc(Nc4nnc(-c5ccccc5)s4)c(N4CCN(c5ccccc5)CC4)cc3n2C2CC2)cc1`, for which the 50% inhibitory concentration (IC50) in assay [1] is more than 10 µM. Further, in assay [2], the inhibition was found to be 21.3%.
Turning to `CN1CCN(c2cc3c(cc2Nc2nnc(-c4ccccc4)s2)nc(-c2cccc(F)c2)n3C2CC2)CC1`, the IC50 in assay [1] amounted to 4.51 µM. Moreover, in assay [2], the inhibition is 56.6%.
In the same order, the values of `CCCn1c(-c2cccc(F)c2)nc2cc(Nc3nnc(-c4ccccc4C(F)(F)F)s3)c(F)cc21` are more than 10 µM and 46.2%.
